The values that follow come from patent US4970206A, “Pyroglutamic acid esters used as dermal penetration enhancers for drugs” (Merck & Co., Inc., priority 1989, dated 1990).

Where two headings read alike, the source gives them in different places. Some results are limits rather than exact numbers.

Series [1] is classed as in vitro ADME, Elaphae obsolata (black rat snake). To be noted: n = 5; for Flux of 2,3-dihydro-5-hydroxy-6-(o-hydroxymethylcinnamyl)benzofuran ± SD / % of 2,3-dihydro-5-hydroxy-6-(o-hydroxymethylcinnamyl)benzofuran delivered in 48 hrs ± SD: 1% (w/w) drug with 15% (w/w) enhancer; for Flux of 2,3-dihydro-5-hydroxy-6-(o-hydroxymethylcinnamyl)benzofuran ± SD: 32°. As to the method:
The transport of 2,3-dihydro-5-hydroxy-6-(o-hydroxymethylcinnamyl)benzofuran, through shed snake skin, which has been reported to be a good model for human stratum corneaum in terms of thickness, compositional features, structure and permeability, was measured in the presence of decyl, dodecyl and oleyl esters of L-pyroglutamic acid used as penetration enhancers.
Because of the poor aqueous solubility of 2,3-dihydro 5-hydroxy-6-(o-hydroxymethylcinnamyl)benzofuran (<0.0002 mg/ml at 32°), 20% propyleneglycol in isotonic pH 7.2 phosphate buffer was used as the receptor medium. […] A weighed amount of a petrolatum ointment (30-35 mg) containing 1% (w/w) of 2,3-dihydro-5-hydroxy-6-(o-hydroxymethylcinnamyl)benzofuran with or without 15% (w/w) of the permeation enhancer was applied to 1.76 cm^2 area of shed skin of adult Elaphae obsolata (black rat snake), and held between the donor and receptor compartments of a diffusion cell by O-rings. […] The diffusion cells were maintained at 32°±1° C. The amount of drug diffused into the receptor chamber was measured by HPLC using acetonitrile-water (2:3) at a flow rate of 1 ml/min as mobile phase, a C18 column and a UV detector set at […]. The results (Table IV below) are averages of five diffusion cells for each experiment.

Series [2] in a line: Aqueous solubility. Format: physicochemical. The note with it: water, at 32°.
A short description of series [3]: Permeation enhancement of enalapril, clonidine and acyclovir using pyroglutamic esters. The series is classed as in vitro ADME, Elaphae obsolete (black rat snake). The note with it: for % delivered in 48 hrs ± SD: no enhancer; for Flux of acyclovir ± SD / % of acyclovir delivered in 48 hrs ± SD: acyclovir with enhancer; for Flux of clonidine ± SD / % of clonidine delivered in 48 hrs ± SD: clonidine with enhancer; for Flux of enalapril ± SD / % of enalapril delivered in 48 hrs ± SD: enalapril with enhancer. The method, then:
(§1) In the examples given below, the permeation enhancement was determined using an in vitro diffusion cell procedure. The molts of adult Elaphae obsolete (black rat snake) was used as the model for stratum corneum membrane (R. Ibuki, Ph.D. Thesis, University of Kansas, 1985). The shed snake skin has great similarities to human skin in terms of thickness, composition of constituents and structure and has been proposed as the most suitable model for human stratum corneum for permeability studies.
Glass diffusion cells consisting of a donor and receptor cells separated by the shed snake skin membrane were assembled using circular O-ring joints held together by spring clamps. The exposed membrane surface area of the diffusion cell measured 1.8 cm^2. Before being mounted in the diffusion cell approximately 25 mg of an ointment containing the therapeutic agent and the penetration enhancer was carefully applied to the membrane and was spread over the desired area. The receptor side was filled with approximately 8.5 ml of buffer solution consisting of 1.5×10^-1 M NaCl, 5×10^-4 NaH2 PO4 and 2.0×10^-4 M Na2 HPO4 adjusted to pH 7.2 with NaOH. The diffusion cell was immersed vertically in a water bath maintained at 32°±1° C. The receptor cell was stirred constantly with a magnetic stirrer. To determine the amount of compound penetrated through the snake skin membrane from the upper chamber, 0.2 ml samples were withdrawn at varying intervals from the receptor chamber using a syringe. An equal amount of fresh buffer was replenished during sampling. The concentration of drug penetrated in each diffusion cell was measured using high pressure liquid chromatography. […]

Series [4] has as its system skin (dorsal surface) of fuzzy rats. As to the kind of experiment: Skin Irritation Study (modified Draize, 3-day occlusive dermal application). The series is classed as in vivo. The arrangement: key: modified Draize index, 0-8 (erythema 0-4 + edema 0-4). To be noted: 3 DAY occlusion, 50 mg over 2 cm^2, maximum 8; for Primary Irritation Index (PII), T0-T72 hrs: irritation index ± SD (n). The method, then:
Fuzzy rats (Temple University) 150 to 200 g were used to study the dermal irritancy as the neat compounds. Test preparations (50 mg) were applied to circular gauze pads 1 mm thick and 16 mm in diameter, and affixed to the animals' dorsal surface with occlusive adhesive film (Adhesive Plaster for Patch Test, Kanebo, Ltd., Osaka, Japan). The occlusive dressings were removed after 3 or 7 days. Treated skin areas were then evaluated according to a modified Draize scoring method, and the irritation index was evaluated for each test site. The first or "primary irritation index" (PII) was an average value reflecting irritation both immediately after dressing removal, and 72 hours later. The "secondary irritation index" (SII) was determined 7 days after dressing removal. The maximum possible PII or SII was 8 with a total possible score of 4 erythema, and a total possible score of 4 for edema. A PII or SII less than or equal to 2 indicated a mild irritant, a PII or SII greater than 2 but less than or equal to 6 indicated a moderate irritant, and a PII greater than 6 indicated a severe irritant as shown in Table 1 below: […]

The nature of series [5]: In vitro diffusion cell permeation through shed snake skin (Example 4). The note with it: 32°; for flux of indomethacin: pH 7.2. The series is classed as in vitro ADME, Elaphae obsolete (black rat snake). The method, then: as §1
Glass diffusion cells consisting of a donor and receptor cells separated by the shed snake skin membrane were assembled using circular O-ring joints held together by spring clamps. The exposed membrane surface area of the diffusion cell measured 1.8 cm^2. Before being mounted in the diffusion cell approximately 25 mg of an ointment containing the therapeutic agent and the penetration enhancer was carefully applied to the membrane and was spread over the desired area. The receptor side was filled with approximately 8.5 ml of buffer solution consisting of 1.5×10^-1 M NaCl, 5×10^-4 NaH2 PO4 and 2.0×10^-4 M Na2 HPO4 adjusted to pH 7.2 with NaOH. The diffusion cell was immersed vertically in a water bath maintained at 32°±1° C. The receptor cell was stirred constantly with a magnetic stirrer. To determine the amount of compound penetrated through the snake skin membrane from the upper chamber, 0.2 ml samples were withdrawn at varying intervals from the receptor chamber using a syringe. An equal amount of fresh buffer was replenished during sampling. The concentration of drug penetrated in each diffusion cell was measured using high pressure liquid chromatography. The results reported for each experiment are the average values from 5 replicate diffusion cells.
The ointments used for the experiments contained varying concentrations of the drug and penetration enhancing agent. The drug was dispersed in the enhancer and this was then mixed with white petrolatum USP using a vortex mixer around 55° C. The ointments were kept in a water bath at 32°±1° C. for 1 day before use in in vitro studies. See Tables II and III below for the results of penetration enhancement effects.

A short description of series [6]: Rat plasma hydrolysis. To be noted: 37° C., decanol generated, by GC, read-out: t 1/2 of enzymatic hydrolysis in rat plasma. Format: in vitro ADME. The method, then:
Freshly prepared rat plasma (2 ml) was mixed with decyl pyroglutamate (0.6 mg) and was maintained at 37° C. Aliquots were removed at different time intervals and vortexed with heptane (1 ml) containing dodecanol as an internal standard. The decanol produced by enzymatic hydrolysis was assayed by gas chromatography on a 6'×2 mm (id) column packed with OV-101 (methylsilicone) on gas chrom Q (100-120 mesh), programmed from 125° to 175° C.

Where [7] appears, read: weight ratio of enhancer/indomethacin 15.0.
Where [8] appears, read: dodecyl pyroglutamate as enhancer, weight ratio of enhancer/drug 15.
Where [9] appears, read: dodecyl pyroglutamate, weight ratio of enhancer/drug 0 (no enhancer).

As to `OCc1ccccc1C=CCc1cc2c(cc1O)CCO2` [2,3-dihydro-5-hydroxy-6-(o-hydroxymethylcinnamyl)benzofuran, reference compound], the “Flux ± SD” value in series [1] (1% (w/w) drug, no enhancer) amounted to 0.19 μg/cm^2 /hr. Further, the “% delivered in 48 hrs ± SD” value in series [1] (1% (w/w) drug, no enhancer, 48 hrs) was found to be 4.24 ± 0.53%. Moreover, in series [2], the solubility is under 0.2 µg/mL.

As for `Nc1nc2c(ncn2COCCO)c(=O)[nH]1` [Acyclovir, reference compound], in series [3] (acyclovir), the “% delivered in 48 hrs ± SD” value is reported as “not detectable”.

Regarding `CCCCCCCCCCCCN1CCCCCC1=O` [Azone, reference compound], in series [4], the “Primary Irritation Index (PII), T0-T72 hrs” value (“Primary Irritation Index” for short) was determined as 4.0 ± 1.9 and the “Secondary Irritation Index (SII) at 7 days” value (shortened to “Secondary Irritation Index”) was determined as 0.

As to `Clc1cccc(Cl)c1N=C1NCCN1` [Clonidine, reference compound], the “% delivered in 48 hrs ± SD” value in series [3] (clonidine, n = 12) turned out to be 1.1 ± 0.3%.

Consider `CCCCCCCCCCOC(=O)[C@@H]1CCC(=O)N1` [Decyl pyroglutamate, Decyl Pyroglutamate], for which, in series [3], the “Flux of acyclovir ± SD” value worked out at 0.063 ± 0.01 μg/cm^2 /hr, the “% of acyclovir delivered in 48 hrs ± SD” value is reported as 0.25 ± 0.03%, the “Flux of clonidine ± SD” value amounted to 0.31 ± 0.13 μg/cm^2 /hr and the “% of clonidine delivered in 48 hrs ± SD” value amounted to 8.1 ± 2.1%. In series [3], the “Flux of enalapril ± SD” value is listed as 0.15 ± 0.01 μg/cm^2 /hr and the “% of enalapril delivered in 48 hrs ± SD” value is recorded as 4.3 ± 0.9%. For the same molecule, the flux of indomethacin in series [5] (setting [7]) amounted to 0.477 μg/cm^2 /hr. In addition, in series [4], the “Primary Irritation Index” value was determined as 0.9 ± 1.1 and the “Secondary Irritation Index” value is given as 0. In series [6], the half-life was found to be 1.7 min. For the same molecule, in series [1], the “Flux of 2,3-dihydro-5-hydroxy-6-(o-hydroxymethylcinnamyl)benzofuran ± SD” value amounted to 0.70 ± 0.06 μg/cm^2 /hr. In addition, in series [1] (48 hrs), the “% of 2,3-dihydro-5-hydroxy-6-(o-hydroxymethylcinnamyl)benzofuran delivered in 48 hrs ± SD” value was 16.1 ± 3.0%.

As to `CCCCCCCCCCCCOC(=O)[C@@H]1CCC(=O)N1` [Dodecyl pyroglutamate], in series [3], the “Flux of acyclovir ± SD” value is reported as 0.072 ± 0.04 μg/cm^2 /hr, the “% of acyclovir delivered in 48 hrs ± SD” value is listed as 0.26 ± 0.15%, the “Flux of clonidine ± SD” value was found to be 0.63 ± 0.21 μg/cm^2 /hr and the “% of clonidine delivered in 48 hrs ± SD” value is on record as 13.2 ± 0.6%. In series [3], the “Flux of enalapril ± SD” value is 0.51 ± 0.09 μg/cm^2 /hr and the “% of enalapril delivered in 48 hrs ± SD” value was determined as 9.9 ± 2.7%. The flux of indomethacin in series [5] (setting [7]) is listed as 0.630 μg/cm^2 /hr. Also, in series [4], the “Primary Irritation Index” value was found to be 0 and the “Secondary Irritation Index” value stood at 0. The “Flux of 2,3-dihydro-5-hydroxy-6-(o-hydroxymethylcinnamyl)benzofuran ± SD” value in series [1] stood at 0.61 ± 0.04 μg/cm^2 /hr. Moreover, in series [1] (48 hrs), the “% of 2,3-dihydro-5-hydroxy-6-(o-hydroxymethylcinnamyl)benzofuran delivered in 48 hrs ± SD” value is reported as 13.4 ± 1.5%.

In the case of `CC(C)=CCCC(C)=CCCC(C)=CCOC(=O)[C@@H]1CCC(=O)N1` [Farnesyl pyroglutamate], the flux of indomethacin in series [5] (setting [7]) worked out at 0.317 μg/cm^2 /hr. In series [4], the “Primary Irritation Index” value was 0 and the “Secondary Irritation Index” value worked out at 0.

Consider `C[C@]12CCC(=O)C=C1CC[C@@H]1[C@@H]2[C@@H](O)C[C@@]2(C)[C@H]1CC[C@]2(O)C(=O)CO` [Hydrocortisone], for which the values for the flux of drug in series [5] (setting [8]) and in series [5] (setting [9]) were 0.338 μg/cm^2 /hr and “Not detectable”, respectively.

As for `COc1ccc2c(c1)c(CC(=O)O)c(C)n2C(=O)c1ccc(Cl)cc1` [Indomethacin, indomethacin], in series [5] (no enhancer), the flux of indomethacin result was “non-detectable”.

As for `CCCCCCCC/C=C\CCCCCCCCOC(=O)[C@@H]1CCC(=O)N1` [Oleyl pyroglutamate], in series [3], the “Flux of clonidine ± SD” value was 0.26 ± 0.15 μg/cm^2 /hr, the “% of clonidine delivered in 48 hrs ± SD” value worked out at 4.4 ± 1.4%, the “Flux of enalapril ± SD” value is 0.92 ± 0.22 μg/cm^2 /hr and the “% of enalapril delivered in 48 hrs ± SD” value worked out at 18.7 ± 5.4%. In addition, the flux of indomethacin in series [5] (setting [7]) was 0.450 μg/cm^2 /hr. Moreover, in series [4], the “Primary Irritation Index” value is 0.1 ± 0.3 and the “Secondary Irritation Index” value worked out at 0. The “Flux of 2,3-dihydro-5-hydroxy-6-(o-hydroxymethylcinnamyl)benzofuran ± SD” value in series [1] is 0.95 ± 0.09 μg/cm^2 /hr. The “% of 2,3-dihydro-5-hydroxy-6-(o-hydroxymethylcinnamyl)benzofuran delivered in 48 hrs ± SD” value in series [1] (48 hrs) is 21.7 ± 1.1%.

For `CC(C)NCC(O)COc1cccc2ccccc12` (centres unmarked) [Propranolol], the flux of drug in series [5] (setting [8]) is 7.410 μg/cm^2 /hr; in series [5] (setting [9]), 3.680 μg/cm^2 /hr.
